SMILES | melting point [°C]
NC(=O)C(Cc1ccc(O)cc1)CC(O)C(Cc1ccccc1)NC(=O)c1cnc2ccccc2n1 (stereo not shown) [Example 336, Quinoxaline-2-carboxylic acid [1-benzyl-4-carbamoyl-2-hydroxy-5-(4-hydroxy-phenyl)-pentyl]-amide] | 190.5 to 191.5
CC(C)(O)CC[C@H](C[C@H](O)[C@H](Cc1ccccc1F)NC(=O)c1cnc2ccccc2n1)C(=O)NO [Example 326, Quinoxaline-2-carboxylic acid [1(S)-(2-fluoro-benzyl)-2(S),7-dihydroxy4(R)-hydroxycarbamoyl-7-methyl-octyl]-amide] | 130 to 131
CC(C)(O)CC[C@H](C[C@H](O)[C@H](Cc1ccccc1F)NC(=O)c1cnc2ccccc2n1)C(N)=O [Example 328, Quinoxaline-2-carboxylic acid [4(R)-carbamoyl-1(S)-(2-fluoro-benzyl)-2(S),7-dihydroxy-7-methyl-octyl]-amide] | 147 to 148
CC(C)(O)CC[C@H](C[C@H](O)[C@H](Cc1ccc(F)c(F)c1)NC(=O)c1cnc2ccccc2n1)C(=O)NO [Example 329, Quinoxaline-2-carboxylic acid [1(S)-(3,4-difluoro-benzyl)-2(S),7-dihydroxy-4(R)-hydroxycarbamoyl-7-methyl-octyl]-amide] | 150 to 153
CC(C)(O)CC[C@H](C[C@H](O)[C@H](Cc1cccs1)NC(=O)c1cnc2ccccc2n1)C(N)=O [Example 327, Quinoxaline-2-carboxylic acid (4(R)-carbamoyl-2(S),7-dihydroxy-7-methyl-1(S)-thiophen-2-ylmethyl-octyl)-amide] | 158 to 159
CC(C)(O)CC[C@H](C[C@H](O)[C@H](Cc1cc(F)cc(F)c1)NC(=O)c1cnc2ccccc2n1)C(N)=O [Example 315, Quinoxaline-2-carboxylic acid [4(R)-carbamoyl-1(S)-(3,5-difluoro-benzyl)-2(S),7-dihydroxy-7-methyl-octyl]-amide] | 162 to 163
CC(C)(O)CC[C@H](C[C@H](O)[C@H](Cc1cccc(F)c1)NC(=O)c1cnc2c(F)c(F)c(F)cc2c1)C(N)=O [Example 332, 6,7,8-Trifluoro-quinoline-3-carboxylic acid [4(R)-carbamoyl-1(S)-(3-fluoro-benzyl)-2(S),7-dihydroxy-7-methyl-octyl]-amide] | 183 to 185
CC(C)(O)CC[C@H](C[C@H](O)[C@H](Cc1cccc2ccccc12)NC(=O)c1cnc2ccccc2n1)C(N)=O [Example 331, Quinoxaline-2-carboxylic acid (4(R)-carbamoyl-2(S),7-dihydroxy-7-methyl-1(S)-naphthalen-1-ylmethyl-octyl)-amide] | 155 to 158
CC(C)(O)CC[C@H](C[C@H](O)[C@H](Cc1ccc(F)c(F)c1)NC(=O)c1cnc2ccccc2n1)C(N)=O [Example 330, Quinoxaline-2-carboxylic acid [4(R)-carbamoyl-1(S)-(3,4-difluoro-benzyl)-2(S),7-dihydroxy-7-methyl-octyl]-amide] | 110 to 120
CC(C)(O)CC[C@H](C[C@H](O)[C@H](Cc1ccc2ccccc2c1)NC(=O)c1cnc2ccccc2n1)C(N)=O [Example 333, Quinoxaline-2-carboxylic acid (4(R)-carbamoyl-2(S),7-dihydroxy-7-methyl-1(S)-naphthalen-2-ylmethyl-octyl)-amide] | 104 to 106
CC(C)(O)CC[C@H](C[C@H](O)[C@H](Cc1cc(F)cc(F)c1)NC(=O)c1cnc2ccccc2n1)C(=O)NO [Example 320, Quinoxaline-2-carboxylic acid [1(S)-(3,5-difluoro-benzyl)-2(S),7-dihydroxy-4(R)-hydroxycarbamoyl-7-methyl-octyl]-amide] | 98 to 100
CC(C)(O)CC[C@H](C[C@H](O)[C@H](Cc1csc2ccccc12)NC(=O)c1cnc2ccccc2n1)C(N)=O [Example 335, Quinoxaline-2-carboxylic acid (1(S)-benzo[b]thiophen-3-ylmethyl-4(R)-carbamoyl-2(S),7-dihydroxy-7-methyl-octyl)-amide] | 163 to 164
CC(C)(O)CC[C@H](C[C@H](O)[C@H](Cc1ccccc1)NC(=O)c1cnccc1C(F)(F)F)C(N)=O [Example 323, N-(1(S)-Benzyl-4(R)-carbamoyl-2(S),7-dihydroxy-7-methyl-octyl)-4-trifluoromethyl-nicotinamide] | 131 to 135

Source: patent US6403587B1, “Heteroaryl-hexanoic acid amide derivatives, their preparation and their use as selective inhibitors of MIP-1-α binding to its CCR 1 receptor” (Pfizer Inc., priority 1997, dated 2002)
